The NIST ThermoML archive (doi:10.1021/je0600552)
Numbers after ± are expanded uncertainties.

Key:
[1] = Crystal; DTA
[2] = Molar enthalpy of transition or fusion; conditions: Crystal; DSC

For `Cc1ccc2[nH]c3c(c2c1)CCCC3=O` [1-keto-1,2,3,4-tetrahydro-6-methylcarbazole], the Normal melting temperature [1] was 195.30 ± 0.9 °C and the “Molar enthalpy of transition or fusion” value [2] was 6.43 ± 0.143 kcal/mol.
